Key:
[1] = test system: S. faecalis, E. rhusiopathiae, B. bronchiseptica, S. agalactiae, Streptococcus group E and Vibrio coli; assay: Bactericide test, comparison with chlortetracycline; format: cell-based; details: Table A
Description: Test formulations were examined for bactericidal and/or bacteriostatic activity against the test organisms shown in Tables A and B. These organisms were chosen as being representative of commercially important pathogens affecting animal agriculture. The antibiotic chlortetracycline was chosen as a positive control, since it has a broad spectrum of activity against a large number of organisms, and its activity can be used for comparative purposes.
Basic test formulations of the product of Examples I, II, III, and of chlortetracycline were prepared by dissolving 16 mg (0.016 g) in 2.0 ml of stock emulsifier solution (0.25% Triton X-155 in acetone by volume) and making each solution up to 50 ml with deionized water. The concentration of the test compound in the basic formulation was 320 ppm. Lower concentrations of the test compound were obtained by diluting the basic formulation with a 4% solution of the stock emulsifier in deionized water so that each dilution in the series differed only in test compound content.
Nutrient-tryptic soy agar (NTA) consisting of 2.0% Difco Bactoagar 0.8% nutrient broth (Difco), and 0.5% tryptic soy broth (Difco) was prepared and sterilized by autoclaving. A 2 ml aliquot of each test formulation was added to 8 ml of molten NTA. This mixture was then plated in a sterile polystyrene petri dish (100 × 15 mm). After the agar was set, suspensions of each of the test organisms were simultaneously streaked onto the surface of the agar. The inoculated plates were incubated for 48 hr. at 28°C. The inhibition of growth of each organism was rated by visual comparison with the organism developing on non-treated agar. Growth inhibition reported as percent control was rated in three categories as follows: 0% control, growth equivalent to that on non-treated agar; 50% control, sparse development and separated colonies; 100% control, no visible growth or development of colonies.

[2] = Example XII: 4 week chick feeding test, first set (Table VI); format: in vivo, broiler cross chicks; details: Table VI
Description: This example compares growth promotion activity of the product of Example I with other growth promotants at a concentration of 25 g/T in the Basal Ration described in Example VII. The other growth promotants include the product described in Example I of U.S. Pat. No. 3,542,784 -- Burch and quinoxaline-1,4-dioxide. Day old broiler cross chicks were weight equalized into groups of 8 chicks each, and four replicates of 8 chicks each were fed the experimental rations over a 4 week period.
The growth promotion tests described in Example X were repeated with the additional testing the products of Examples II and III.

Row | Structure (SMILES) | effectiveness relative to chlortetracycline (in words) [1] | growth rate / feed efficiency response (in words) [2]
1 | O=[N+]([O-])c1ccc(C=Cc2nc(Nc3ccccc3)c3ccccc3n2)o1 [Example IV, 2-[2-(5-nitro-2-furyl)vinyl]-4-anilinoquinazoline] | considerably more effective | –
2 | O=[N+]([O-])c1ccc(C=Cc2nc(Nc3cccc(O)c3)c3ccccc3n2)o1 [Example II, 2-[2-(5-nitro-2-furyl)vinyl]-4-(m-hydroxyanilino)quinazoline] | considerably more effective | moderate improvements
